Assay results as given in PMC6855250 (Nature, 2019).

Molecular target: SidJ∆N99-CaM (Legionella pneumophila, UniProt Q5ZTK6)
Sequence (Q5ZTK6 whole entry, looked up): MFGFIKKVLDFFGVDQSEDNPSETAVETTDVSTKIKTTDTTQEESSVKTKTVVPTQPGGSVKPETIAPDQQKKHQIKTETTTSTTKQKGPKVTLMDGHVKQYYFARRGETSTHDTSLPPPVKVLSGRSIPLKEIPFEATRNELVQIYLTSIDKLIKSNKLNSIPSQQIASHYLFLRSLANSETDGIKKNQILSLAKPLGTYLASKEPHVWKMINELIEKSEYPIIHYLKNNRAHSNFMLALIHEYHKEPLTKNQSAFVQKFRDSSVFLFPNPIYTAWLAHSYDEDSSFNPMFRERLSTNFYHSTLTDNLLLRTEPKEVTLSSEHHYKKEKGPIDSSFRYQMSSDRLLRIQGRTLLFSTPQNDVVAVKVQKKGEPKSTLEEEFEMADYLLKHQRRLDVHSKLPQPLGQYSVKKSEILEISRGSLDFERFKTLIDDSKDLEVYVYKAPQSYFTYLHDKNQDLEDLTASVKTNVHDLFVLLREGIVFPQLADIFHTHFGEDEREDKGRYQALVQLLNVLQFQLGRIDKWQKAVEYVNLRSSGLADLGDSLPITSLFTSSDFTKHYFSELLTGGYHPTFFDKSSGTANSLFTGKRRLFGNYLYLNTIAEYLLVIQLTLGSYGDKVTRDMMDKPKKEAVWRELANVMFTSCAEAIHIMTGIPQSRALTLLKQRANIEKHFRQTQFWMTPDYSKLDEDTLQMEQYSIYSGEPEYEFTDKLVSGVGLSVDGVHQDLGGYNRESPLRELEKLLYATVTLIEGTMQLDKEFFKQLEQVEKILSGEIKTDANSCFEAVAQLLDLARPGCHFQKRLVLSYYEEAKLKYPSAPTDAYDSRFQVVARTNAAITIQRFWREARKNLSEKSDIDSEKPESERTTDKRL

## Nc1ncnc2c1ncn2[C@@H]1O[C@H](COP(=O)(O)O)[C@@H](O)[C@H]1O [AMP]
  X-ray crystal structure, 3.11 Å: We observed an AMP moiety bound in a pocket formed in the CD
